Patent publication US20250108038A1 (priority 2023, published 2025)
Values joined by “and” are separate entries in the source; they are usually repeats but may differ in a detail not shown here. Equal entries are not always repeated.

What was measured:
[1] = tested on: HEK293 uptake transporter overexpressing and control cells; experiment: Resazurin-based cytotoxicity assay
Protocol: The cells were plated on 96-well plates. Prior to the experiment the medium was removed, and cells were rinsed with 2×100 μL of the respective buffer for uptake transporter transfected and control cell lines.

Long Evans rats = experiment: Time-restricted (deprivation-induced) feeding, food intake; format: in vivo, Long Evans rat; conditions: for Food Consumption, AVG / Food Consumption: 2 h feeding; for Food Consumption, AVG: average of 12 animals; for Food Consumption: individual animals LT-1 to LT-12
Protocol: Food consumption was limited to 2 h/day and so was motivated by hunger caused by 22 h food deprivation. Water was freely available 24 h/day.
Specifically, 12 male Long-Evans rats were food-deprived for 22 h with a 2 h feeding period each day. Rats were trained to consume daily food during the 2 h period over 25 days. The testing phase was initiated once the rats consistently consumed 16-18 g of food per day with ≤10% variance in amount of feed consumed. Feeding took place in designated individual boxes in a quiet room separate from the housing room. Continuous remote monitoring via video camera during feeding was used to assess the BSS. Food consumption was measured by weighing the total available food before and after the 2 h feeding window, correcting for spillage. Lorcaserin (1 mg/kg) was included as a reference control (Higgins et al, 2011, Neuropsychopharmacology. 37(5): 1177-1191). Subjects were tested using a repeated-measures, Latin square design with 2-3 days wash-out between treatment cycles.
Drug was administered at a volume of 1 mL/kg, intraperitoneal (IP). […]: 0.1, 0.3, 1, 3 mg/kg. There was a pretreatment time of 30 minutes.
Drug was administered at a volume of 1 mL/kg, subcutaneous (SC) route. One dose was tested: 1 mg/kg (expressed as base). There was a pretreatment time of 10 minutes.
Following a five day period of familiarization to the test facility, animals were placed on a restricted diet regimen, in which they were allotted approximately 40 g of standard laboratory chow once per day (between 10:00 h and 14:00 h). Rats were trained to consume the daily food (approximately 16-18 g of feed consumed) over a 2 h period. Daily food intakes were stable by study Day 25, with the quantity of feed consumed varying by ≤10% per day. Water was available ad-libitum. Subjects were pair-housed for the duration of the study and were maintained on a 12 h/12 h light/dark cycle with all testing conducted during the animals' light cycle. All animal use procedures were performed in accordance with the principles of the Canadian Council on Animal Care (CCAC).
Feed was measured using a certified scale according to standard operating procedures prior to testing. Residual feed was weighed following completion of the 2 h feeding window to track total intake (g).
Compound I-19 and Lorcaserin were prepared fresh on each test day. Test article was suspended in 0.8% DMSO, 6% PEG400, and 93.2% HβCD (6% in H2O) and sonicated until fully dissolved. […] Pretreatment time (ptt) was 30 minutes prior to commencement of testing. Lorcaserin was dissolved in 0.9% saline and administered via the subcutaneous route with a dose volume of 1 mL/kg with a ppt of 10 minutes.
The primary measure from the BSS test was total measured food intake (g), expressed as mean+SEM. Data were analysed by repeated-measures ANOVA (with treatment as a factor) (Statistica Version 11, Statsoft Inc. [2012]). Planned post-hoc comparisons were made in the event of a significant main effect using Dunnett's test. Significance was set at P<0.05.

human gut microbiota = experiment: Stability in human gut microbiota; conditions: human fecal matter, 37° C., 0-120 min
Protocol: FIG. 7A. […] Gut microbiota from rat and human sources were extracted and purified in PBS at pH 6.0 or 7.4. A stock solution of 10 mM was prepared and a 10 μL aliquot was added to extracted microorganisms at 0 min. […] Values represent mean+SEM of n=3 separate experiments.
FIG. 7B. […] Gut microbiota from rat and human sources were extracted and purified in PBS at pH 6.0 or 7.4. A stock solution of 10 mM was prepared and a 10 μL aliquot was added to extracted microorganisms at 0 min. […] Values represent mean+SEM of n=3 separate experiments.
Rat fecal material was obtained and weighed. One capsule of the raw probiotics was crushed and weighed prior to use. The weighed samples were then solubilized in PBS at pH 6.0 and 7.4 to extract microorganisms. The samples were centrifuged at 18,000×g for 10 min. to remove particulates and the supernatant was used to evaluate test article stability. An aliquot (50 μL) of the test article stock solutions were added to the fecal extract (final concentration 0.5 mM) and allowed to incubate at 37° C. […] The collected sample was quenched in acetonitrile/0.1% formic acid mixture.

[2] = MATE1 assay, 12.50 μM, incubation 30 + 3 min
[3] = MATE1 assay, 50.00 μM, incubation 30 + 3 min
[4] = MATE1 assay, 100.00 μM, incubation 30 + 3 min
[5] = MATE2-K assay, 12.50 μM, incubation 30 + 1 min
[6] = MATE2-K assay, 50.00 μM, incubation 30 + 1 min
[7] = MATE2-K assay, 100.00 μM, incubation 30 + 1 min
[8] = OAT1 assay, 12.50 μM, incubation 30 + 2 min
[9] = OAT1 assay, 50.00 μM, incubation 30 + 2 min
[10] = OAT1 assay, 100.00 μM, incubation 30 + 2 min
[11] = OAT3 assay, 12.50 μM, incubation 30 + 1 min
[12] = OAT3 assay, 50.00 μM, incubation 30 + 1 min
[13] = OAT3 assay, 100.00 μM, incubation 30 + 1 min
[14] = OATP1B1 assay, 12.50 μM, incubation 30 + 3 min
[15] = OATP1B1 assay, 50.00 μM, incubation 30 + 3 min
[16] = OATP1B1 assay, 100.00 μM, incubation 30 + 3 min
[17] = OATP1B3 assay, 12.50 μM, incubation 30 + 2 min
[18] = OATP1B3 assay, 50.00 μM, incubation 30 + 2 min
[19] = OATP1B3 assay, 100.00 μM, incubation 30 + 2 min
[20] = OCT1 assay, 12.50 μM, incubation 30 + 3 min
[21] = OCT1 assay, 50.00 μM, incubation 30 + 3 min
[22] = OCT1 assay, 100.00 μM, incubation 30 + 3 min
[23] = OCT2 assay, 12.50 μM, incubation 30 + 1 min
[24] = OCT2 assay, 50.00 μM, incubation 30 + 1 min
[25] = OCT2 assay, 100.00 μM, incubation 30 + 1 min

Clc1ccc(C2(OCC3OCCO3)c3ccccc3C3=NCCN32)cc1 (stereo not drawn) [Compound I-19]
Cell viability (cytotoxic effect) ([1]; HEK293-MATE1-LV, -MATE2-K-LV, -OAT1-LV, -OAT3-LV, -OATP1B1-LV, -OATP1B3-LV, -OCT1-LV, -OCT2-LV and control cells): did not reduce the cell viability
Relative cell viability, control cells [1, 2]: 97.67 ± 3.73 % of control
Relative cell viability, transfected cells [1, 2]: 97.90 ± 1.86 % of control
Relative cell viability, control cells [1, 3]: 93.64 ± 2.83 % of control
Relative cell viability, transfected cells [1, 3]: 95.88 ± 2.04 % of control
Relative cell viability, control cells [1, 4]: 85.16 ± 2.74 % of control
Relative cell viability, transfected cells [1, 4]: 97.35 ± 2.64 % of control
Relative cell viability, control cells [1, 5]: 104.66 ± 2.14 % of control
Relative cell viability, transfected cells [1, 5]: 101.07 ± 1.57 % of control
Relative cell viability, control cells [1, 6]: 104.14 ± 1.46 % of control
Relative cell viability, transfected cells [1, 6]: 106.73 ± 1.88 % of control
Relative cell viability, control cells [1, 7]: 84.34 ± 2.47 % of control
Relative cell viability, transfected cells [1, 7]: 101.71 ± 1.17 % of control
Relative cell viability, control cells [1, 8]: 98.64 ± 5.98 % of control
Relative cell viability, transfected cells [1, 8]: 97.97 ± 3.47 % of control
Relative cell viability, control cells [1, 9]: 97.24 ± 5.90 % of control
Relative cell viability, transfected cells [1, 9]: 95.01 ± 3.42 % of control
Relative cell viability, control cells [1, 10]: 90.45 ± 6.49 % of control
Relative cell viability, transfected cells [1, 10]: 88.69 ± 3.44 % of control
Relative cell viability, control cells [1, 11]: 102.06 ± 3.84 % of control
Relative cell viability, transfected cells [1, 11]: 99.42 ± 0.98 % of control
Relative cell viability, control cells [1, 12]: 92.66 ± 3.32 % of control
Relative cell viability, transfected cells [1, 12]: 97.87 ± 1.31 % of control
Relative cell viability, control cells [1, 13]: 83.05 ± 3.00 % of control
Relative cell viability, transfected cells [1, 13]: 97.06 ± 1.13 % of control
Relative cell viability, control cells [1, 14]: 96.78 ± 4.68 % of control
Relative cell viability, transfected cells [1, 14]: 99.91 ± 0.74 % of control
Relative cell viability, control cells [1, 15]: 93.42 ± 4.34 % of control
Relative cell viability, transfected cells [1, 15]: 98.71 ± 0.94 % of control
Relative cell viability, control cells [1, 16]: 89.12 ± 4.63 % of control
Relative cell viability, transfected cells [1, 16]: 94.19 ± 1.27 % of control
Relative cell viability, control cells [1, 17]: 103.94 ± 0.47 % of control
Relative cell viability, transfected cells [1, 17]: 102.23 ± 1.09 % of control
Relative cell viability, control cells [1, 18]: 101.22 ± 1.01 % of control
Relative cell viability, transfected cells [1, 18]: 101.42 ± 1.04 % of control
Relative cell viability, control cells [1, 19]: 95.06 ± 1.40 % of control
Relative cell viability, transfected cells [1, 19]: 97.75 ± 0.86 % of control
Relative cell viability, control cells [1, 20]: 101.25 ± 5.53 % of control
Relative cell viability, transfected cells [1, 20]: 92.84 ± 3.54 % of control
Relative cell viability, control cells [1, 21]: 98.64 ± 5.26 % of control
Relative cell viability, transfected cells [1, 21]: 92.82 ± 3.41 % of control
Relative cell viability, control cells [1, 22]: 92.32 ± 6.47 % of control
Relative cell viability, transfected cells [1, 22]: 86.46 ± 3.25 % of control
Relative cell viability, control cells [1, 23]: 99.87 ± 1.09 % of control
Relative cell viability, transfected cells [1, 23]: 99.66 ± 1.41 % of control
Relative cell viability, control cells [1, 24]: 97.55 ± 0.85 % of control
Relative cell viability, transfected cells [1, 24]: 99.58 ± 1.02 % of control
Relative cell viability, control cells [1, 25]: 87.66 ± 0.85 % of control
Relative cell viability, transfected cells [1, 25]: 96.29 ± 1.73 % of control
decrease of the relative cell viability compared to solvent (DMSO) ([1]; all uptake transporter overexpressing and control cells): less than 20%
Food Consumption, AVG (Long Evans rats; 0.1 mg/kg intraperitoneal): 17.8 grams
Food Consumption (Long Evans rats; 0.1 mg/kg intraperitoneal): 22.2 grams and 13.4 grams and 17.8 grams and 18.2 grams and 19.4 grams (2×) and 20.7 grams and 18 grams and 15.7 grams and 14.5 grams and 14.1 grams and 19.7 grams
Food Consumption, AVG (Long Evans rats; 0.3 mg/kg intraperitoneal): 17.2 grams
Food Consumption (Long Evans rats; 0.3 mg/kg intraperitoneal): 22.1 grams and 15 grams and 18.8 grams and 15.4 grams and 19 grams and 18.2 grams and 18.1 grams and 15.8 grams and 17.8 grams and 14.9 grams and 14.5 grams and 16.5 grams
Food Consumption, AVG (Long Evans rats; 1 mg/kg intraperitoneal): 15.8 grams
Food Consumption (Long Evans rats; 1 mg/kg intraperitoneal): 18.7 grams and 13.2 grams and 17.8 grams and 15.8 grams and 19.3 grams and 17.7 grams and 13.4 grams and 14 grams and 14.9 grams (2×) and 13.8 grams and 16.3 grams
decrease of food intake vs vehicle (Long Evans rats; 3 mg/kg Compound I-19 IP): 10.6%
Food Consumption, AVG (Long Evans rats; 3 mg/kg intraperitoneal): 15.9 grams
Food Consumption (Long Evans rats; 3 mg/kg intraperitoneal): 19 grams and 14.1 grams and 18.3 grams and 14 grams and 17.7 grams and 16.6 grams and 16.3 grams and 14.8 grams and 15.5 grams and 15 grams and 13.1 grams and 16.8 grams
effect on food intake (Long Evans rats; acute, 0.1, 0.3, 1, 3 mg/kg IP): significantly decreased food intake at 1 and 3 mg/kg
food intake (2 h feeding period) (Long Evans rats; rat, in vivo): 15.9 ± 0.5 g
% parent compound remaining (human gut microbiota; pH 6, 0.5 mM): no significant change in the amount of parent compound
% parent compound remaining (human gut microbiota; pH 7.4, 0.5 mM): at or above 100% for all time points except 120 min
